Each block holds one compound with its values, some of them ahead of it.
Legend:
[1] = system: human renal proximal tubule epithelial cells (Rb-positive); assay: Cellular wash-out experiment, renal cells; assay type: cell-based; settings: 300 nM
Procedure: Alternatively, the same experiment was done using normal Renal Proximal Tubule Epithelial Cells (Rb-positive) obtained from American Type Culture Collection (ATCC, Manassas, Va.). Cells were grown in an incubator at 37° C. in a humidified atmosphere of 5% CO2 in Renal Epithelial Cell Basal Media (ATCC) supplemented with Renal Epithelial Cell Growth Kit (ATCC) in 37° C. humidified incubator.
Upon harvesting cells, samples were stained with propidium iodide staining solution and samples run on Dako Cyan Flow Cytometer. The fraction of cells in G0-G1 DNA cell cycle versus the fraction in S-phase DNA cell cycle was determined using FlowJo 7.2.2 analysis.

[2] = Grade 3/4 neutropenia and leukopenia; cited from earlier work
[3] = system: HSPC; settings: in humans; cited from earlier work
[4] = system: CDK4/6 independent Rb-null melanoma cell line A2058; settings: cited from earlier work
[5] = system: HSPC (LKS+) and myeloid progenitor cells (LKS−); settings: single dose 150 mg/kg oral gavage, mice; cited from earlier work
[6] = system: CDK4/6-dependent cell lines; settings: cited from earlier work
[7] = system: RB-negative SCLC cell lines (H69, H82, H209, H345, NCI417, SHP-77); assay: Proliferation by EdU incorporation, RB-negative SCLC cell lines; assay type: cell-based; settings: 24 hours; PD0332991 300 nM, Formula I and III 300 nM or 1000 nM
Procedure: (§1) SCLC cells were treated with DMSO or the indicated CDK4/6 inhibitor for 24 hours. The effect of CDK4/6 inhibition on proliferation was measured by EdU incorporation. An RB-intact, CDK4/6-dependent cell line (WM2664 or tHS68) and a panel of RB-negative SCLC cell lines (H69, H82, H209, H345, NCI417, or SHP-77) were analyzed for growth inhibition by the various CDK4/6 inhibitors.

[8] = system: WM2664 or tHS68; assay: Proliferation by EdU incorporation, RB-intact CDK4/6-dependent cell line; assay type: cell-based; settings: 24 hours; WM2664 for PD0332991 (300 nM), tHS68 for Formula I and III (300 nM or 1000 nM)
Procedure: as §1

[9] = system: mice exposed to peri-lethal and lethal TBI; settings: compared to untreated controls; cited from earlier work
[10] = system: HSPC; assay: PK half-life and HSPC cell cycle arrest of PD0332991 in humans; assay type: in vivo
[11] = system: A2058 (human metastatic melanoma cells, Rb-negative); assay: CellTiter-Glo cellular proliferation assay, A2058; assay type: cell-based; settings: A2058, 144 h, six days
Procedure: (§2) Cellular proliferation assays were conducted using the following Rb-negative cancer cell lines: H69 (human small cell lung cancer—Rb-negative) cells or A2058 (human metastatic melanoma cells—Rb-negative). These cells were seeded in Costar (Tewksbury, Mass.) 3093 96 well tissue culture treated white walled/clear bottom plates. Cells were treated Formulas I, II, III, or IV as nine point dose response dilution series from 10 uM to 1 nM. Cells were exposed to compounds and then cell viability was determined after either four (H69) or six (A2058) days as indicated using the CellTiter-Glo® luminescent cell viability assay (CTG; Promega, Madison, Wis., United States of America) following the manufacturer's recommendations. Plates were read on BioTek (Winooski, Vt.) Syngergy2 multi-mode plate reader. The Relative Light Units (RLU) were plotted as a result of variable molar concentration and data was analyzed using Graphpad (LaJolla, Californaia) Prism 5 statistical software to determine the EC50 for each compound.

[12] = system: HS68 cells; assay: G1 arrest (cellular G1 and S-phase) assay, propidium iodide flow cytometry; assay type: cell-based; settings: Homo sapiens
Procedure: For determination of cellular fractions in various stages of the cell cycle following various treatments, HS68 cells (human skin fibroblast cell line (Rb-positive)) were stained with propidium iodide staining solution and run on Dako Cyan Flow Cytometer. The fraction of cells in G0-G1 DNA cell cycle versus the fraction in S-phase DNA cell cycle was determined using FlowJo 7.2.2 analysis.
Formulas I, II, III, and IV were tested for their ability to arrest HS68 cells at the G1 phase of the cell cycle.

[13] = system: H69 (human small cell lung cancer, Rb-negative) cells; assay: CellTiter-Glo cellular proliferation assay, H69; assay type: cell-based; settings: NCI-H69, 96 h, four days
Procedure: as §2

[14] = system: tHS68 cells; assay: Cell cycle arrest in CDK4/6-dependent cells, propidium iodide flow cytometry; assay type: cell-based
Excerpt: To test the ability of CDK4/6 inhibitors to induce a clean G1-arrest, a cell based screening method was used consisting of two CDK4/6-dependent cell lines (tHS68 and WM2664; Rb-positive) and one CDK4/6-independent (A2058; Rb-negative) cell line. […] At the conclusion of the experiment, cells were harvested, fixed, and stained with propidium iodide (a DNA intercalator), which fluoresces strongly red (emission maximum 637 nm) when excited by 488 nm light. Samples were run on Dako Cyan flow cytometer and >10,000 events were collected for each sample. Data were analyzed using FlowJo 2.2 software developed by TreeStar, Inc.

[15] = system: tHDF cells; assay: Caspase 3/7 assay after irradiation; assay type: cell-based; settings: 100, 300 or 1,000 nM after 6, 8 or 10 Gy
Procedure: (§3) DNA damage was determined using the g-H2A.X assay and apoptosis was determined with a Caspase 3/7 assay. For the g-H2AX assay, tHS68 cells were fixed and stained using the g-H2A.X Phosphorylation Assay Kit (Flow Cytometry; Millipore, Temecula, Calif.) by the manufacturer's instructions. g-H2AX-positive tHDF cells were then quantified using a CyAn ADP Analyzer (Beckman Coulter, Indianapolis, Ind.) and FlowJo analysis software (Version 7.2.2; Tree Star, Ashland, Oreg.). For the in vitro caspase 3/7 assay, tHDF cells were analyzed directly in the 96-well plates 24 hours after radiation or staurosporine treatment. Caspase 3/7 activation was measured using the Caspase-Glo 3/7 Assay System (Promega, Madison, Wis.) by following the manufacturer's instructions.
(§4) For the g-H2AX assay, 30,000 cells were plated per well in 12-well plates. For the caspase 3/7 assay, 1,000 cells were plated per well in 96-well white wall clear bottom plates. Cells were incubated at 37° C. in a humidified atmosphere of 5% CO2 for 24 hours and then irradiated at 6 Gy, 8 Gy, or 10 Gy.

[16] = system: mice after total body irradiation; assay: Radiomitigation, survival after total body irradiation; assay type: in vivo
Procedure: Wild-type mice, young adult (8-12 weeks of age) C57BL/6 (The Jackson Laboratory) or C3H (Harlan Sprague-Dawley) animals were used. Animals were irradiated using a 137Cs AECL GammaCell 40 Irradiator (Atomic Energy of Canada) or a XRAD320 (Precision XRay Inc.) biological irradiator. Experiments were carried out using the 137Cs source, unless otherwise noted.

[17] = system: tHS68 cells; assay: g-H2A.X assay after irradiation; assay type: cell-based; settings: 100, 300 or 1,000 nM after 6, 8 or 10 Gy
Procedure: as §3, §4

[18] = system: 456 (395 non-mutant) kinases; assay: DiscoveRx KINOMEscan profiling; assay type: binding; settings: single concentration of 1000 nM
[19] = Metabolic stability in liver microsomes; assay type: in vitro ADME, and mouse; settings: each of the species tested (human, monkey, dog, rat, mouse); 1 uM, 0.5 mg/mL microsomes
Procedure: Human, mouse, and dog liver microsomes were purchased from Xenotech, and Sprague-Dawley rat liver microsomes were prepared by Absorption Systems. The reaction mixture comprising 0.5 mg/mL of liver microsomes, 100 mM of potassium phosphate, pH 7.4, 5 mM of magnesium chloride, and 1 uM of test compound was prepared. The test compound was added into the reaction mixture at a final concentration of 1 uM. An aliquot of the reaction mixture (without cofactor) was incubated in shaking water bath at 37 deg. C. for 3 minutes. The control compound, testosterone, was run simultaneously with the test compound in a separate reaction. The reaction was initiated by the addition of cofactor (NADPH), and the mixture was then incubated in a shaking water bath at 37 deg. C. Aliquots (100 μL) were withdrawn at 0, 10, 20, 30, and 60 minutes for the test compound and 0, 10, 30, and 60 minutes for testosterone. […] Test compound samples were analyzed using the Orbitrap high resolution mass spectrometer to quantify the disappearance of parent test compound and detect the appearance of metabolites. […] Half-lives were calculated using GraphPad software, fitting to a single-phase exponential decay equation.
When calculated half-life was longer than the duration of the experiment, the half-life was expressed as > the longest incubation time. The calculated half-life is also listed in parentheses. […]

[20] = single oral dose 150 mg/kg 12 hours after exposure

SMILES: CC(=O)c1c(C)c2cnc(Nc3ccc(N4CCNCC4)cn3)nc2n(C2CCCC2)c1=O [PD0332991, 6-acetyl-8-cyclopentyl-5-methyl-2-(5-piperazin-1-yl-pyridin-2-ylammino)-8H-pyrido-[2,3-d]-pyrimidin-7-one]
return to baseline levels of cell division after wash out [1]: took significantly longer to return to baseline levels of cell division
patients requiring a dose interruption [2]: 71%
patients requiring a dose reduction [2]: 35%
PK half-life [3]: 27 h
G1 arrest [4]: did not G1 arrest
protection from IR exposure [4]: failed to protect
duration of sustained reduction in HSPC (LKS+) and myeloid progenitor (LKS−) EdU incorporation [5]: greater than 36 hours
time post oral dosing of return to baseline cell division [5]: 48 h
IR protection [6]: exhibited IR protective characteristics
effect on growth (cells in S phase, EdU) of Rb-negative SCLC cell lines [7]: does not affect the growth
effect on proliferation (cells in S phase, EdU) of Rb-positive cell line [8]: inhibits
HSPC protection and survival after TBI [9]: protect HSPCs and improve survival of mice
total time for normal bone marrow function to return [10]: ≥ 7 days
time to clear the compound ([10]; 5 half-lives × 27 hour half-life): 6 days
duration of cell cycle arrest of HSPC ([10]; single administration): approximately one week

SMILES: CN1CCN(c2ccc(Nc3ncc4cc5n(c4n3)C3(CCCCC3)CNC5=O)nc2)CC1 [Formula I, 2′-((5-(4-methylpiperazin-1-yl)pyridin-2-yl)amino)-7′,8′-dihydro-6′H-spiro[cyclohexane-1,9′-pyrazino[1′,2′:1,5]pyrrolo[2,3-d]pyrimidin]-6′-one]
EC50 [11]: > 3 µM
cells in S-phase at the highest concentration shown ([14]; tHS68, 24 hours, 28% at baseline): 6%
EC50 ([14]; tHS68 cells, 24 hours, read-out: G1 cell cycle arrest EC50): 0.08 µM
radiation induced apoptosis (caspase 3/7 activity) [15]: dose dependent decrease in radiation induced apoptosis
survival after 7.5 Gy TBI, two doses ([16]; 150 mg/kg oral at 12 hours and 24 hours post TBI): Survival was also enhanced
survival after 7.2 Gy TBI [16, 20]: provided radiomitigation
survival after 7.5 Gy TBI [16, 20]: significant survival effect
effect on growth (cells in S phase, EdU) of Rb-negative SCLC cell lines [7]: does not affect the growth
radiation induced DNA damage (H2AX foci) [17]: dose dependent decrease in radiation induced DNA damage
EC50 [12]: 0.1 µM
number of 395 non-mutant kinases inhibited, threshold 65% ([18]; inhibitory threshold 65%): 92
number of 395 non-mutant kinases inhibited, threshold 90% ([18]; inhibitory threshold 90%): 31
number of 395 non-mutant kinases inhibited, threshold 99% ([18]; inhibitory threshold 99%): 6
effect on proliferation (cells in S phase, EdU) of Rb-positive cell line [8]: inhibits
half-life in liver microsomes [19]: shorter half-life than PD0332991
EC50 [13]: > 3 µM

SMILES: O=C1NCC2(CCCCC2)n2c1cc1cnc(Nc3ccc(N4CCNCC4)cn3)nc12 [Formula II, 2′-((5-(piperazin-1-yl)pyridin-2-yl)amino)-7′,8′-dihydro-6′H-spiro[cyclohexane-1,9′-pyrazino[1′,2′:1,5]pyrrolo[2,3-d]pyrimidin]-6′-one]
EC50 [11]: 2.61 µM
EC50 [12]: 0.1 µM
EC50 [13]: > 3 µM

Further lines, with some results ahead:

EC50 [11]: > 3 µM
EC50 [12]: 0.025 µM
EC50 [13]: > 3 µM
SMILES: O=C1NCC2(CCCCC2)n2c1cc1cnc(Nc3ccc(N4CCC(N5CCOCC5)CC4)cn3)nc12 [Formula IV, 2′-((5-(4-morpholinopiperidin-1-yl)pyridin-2-yl)amino)-7′,8′-dihydro-6′H-spiro[cyclohexane-1,9′-pyrazino[1′,2′:1,5]pyrrolo[2,3-d]pyrimidin]-6′-one]

EC50 [11]: 2.69 µM
EC50 [12]: 0.08 µM
EC50 [13]: 2.92 µM
SMILES: CC(C)N1CCN(c2ccc(Nc3ncc4cc5n(c4n3)C3(CCCCC3)CNC5=O)nc2)CC1 [Formula III, 2′-((5-(4-isopropylpiperazin-1-yl)pyridin-2-yl)amino)-7′,8′-dihydro-6′H-spiro[cyclohexane-1,9′-pyrazino[1′,2′:1,5]pyrrolo[2,3-d]pyrimidin]-6′-one]
effect on growth (cells in S phase, EdU) of Rb-negative SCLC cell lines [7]: does not affect the growth
effect on proliferation (cells in S phase, EdU) of Rb-positive cell line [8]: inhibits

— patent US20210077498A1, “TRANSIENT PROTECTION OF HEMATOPOIETIC STEM AND PROGENITOR CELLS AGAINST IONIZING RADIATION” (G1 Therapeutics, Inc., priority 2015, published 2021)
